Consider nine compounds from patent US7498460B2, “Isophthalic acid derivatives” (Bayer Healthcare AG, priority 2002, dated 2009).

The target in one data set is T1, human CysLT2 receptor (Homo sapiens, UniProt Q9NS75).
T1 construct: expressed in transfected cells; host or cells: CHO K1 (ATCC) constitutively expressing aequorin
T1 sequence (Q9NS75 1-346): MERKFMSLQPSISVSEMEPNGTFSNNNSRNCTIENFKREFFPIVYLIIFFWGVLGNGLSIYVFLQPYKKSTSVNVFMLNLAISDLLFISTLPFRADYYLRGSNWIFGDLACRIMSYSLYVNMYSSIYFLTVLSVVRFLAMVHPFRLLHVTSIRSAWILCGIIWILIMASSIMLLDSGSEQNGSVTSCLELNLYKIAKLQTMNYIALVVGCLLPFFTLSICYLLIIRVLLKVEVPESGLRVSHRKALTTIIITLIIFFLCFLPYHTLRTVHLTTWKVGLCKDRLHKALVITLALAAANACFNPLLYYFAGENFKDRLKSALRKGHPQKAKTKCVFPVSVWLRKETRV
Description: Cellular in vitro test to determine the CysLT2 activity (aequorin luminescence, LTD4 stimulation). Type of data set: cell-based. Particulars: CHO K1 cells with aequorin and human CysLT2 receptor; agonist LTD4 3×10^−8 M. From the text:
B. Assessment of the Physiological Activity Abbreviations: DMEM Dulbecco's modified Eagle medium FCS Fetal calf serum HEPES 4-(2-hydroxyethyl)-1-piperazineethanesulphonic acid 1. Cellular In Vitro Test to Determine the CysLT2 Activity
A recombinant cell line is used to identify antagonists of the human cysteinyl-leukotriene 2 receptor (CysLT2R) and to quantify the activity of the substances described herein. The cell is originally derived from a hamster ovary epithelial cell (Chinese Hamster Ovary, CHO K1, ATCC: American Type Culture Collection, Manassas, Va. 20108, USA). The test cell line constitutively expresses the calcium-sensitive photoprotein aequorin which, after reconstitution with the cofactor coelenterazine, emits light when the cytoplasmic calcium concentration is increased (Rizzuto R, Simpson A W, Brini M, Pozzan T.; Nature 358 (1992) 325-327). The cell is additionally stably transfected with the human CysLT2 receptor (Heise et.al., JBC 275 (2000) 30531-30536). The resulting CysLT2R test cell responds to stimulation of the recombinant CysLT2 receptor (agonists: leukotriene D4 (LTD4) and leukotriene C4 (LTC4)) with an intracellular release of calcium ions, which can be quantified through the resulting aequorin luminescence with a suitable luminometer (Milligan G, Marshall F, Rees S, Trends in Pharmacological Sciences 17 (1996) 235-237). Preincubation with antagonists of the CysLT2 receptor reduces the calcium release induced by the agonists LTD4 and LTC4 and thus the measured amount of light.
(§1) Test procedure: The cells are plated out two days before the test in culture medium (DMEM/F12 with Glutamax, Gibco Cat.# 61965-026; 10% FCS, Gibco Cat.# 10270-106; 1.4 mM sodium pyruvate, Gibco Cat.# 11360-039; 1.8 mM sodium bicarbonate, Gibco Cat.# 25080-060; 10 mM HEPES, Gibco Cat.# 15290-026; now belongs to Invitrogen GmbH, 76131 Karlsruhe) in 384- (or 1536-)well microtitre plates and kept in a cell incubator (96% humidity, 5% V/V CO2, 37° C.). On the day of the test, the culture medium is replaced by Tyrode solution (in mM: 140 NaCl, 5 KCl, 1 MgCl2, 2 CaCl2; 20 glucose, 20 HEPES) which additionally contains the cofactor coelenterazine (50 μM), and the microtitre plate is then incubated for a further 3-4 hours. 15 minutes after the test substances have been transferred into the wells of the microtitre plate, the resulting light signal is measured after addition of the LTD4 (3×10^−8 M) in the luminometer.

The target of a further data set is T2, human CysLT1 receptor (Homo sapiens, UniProt Q9Y271).
T2 construct: expressed in transfected cells; host or cells: CHO K1 (ATCC) constitutively expressing aequorin
T2 sequence (Q9Y271 1-337): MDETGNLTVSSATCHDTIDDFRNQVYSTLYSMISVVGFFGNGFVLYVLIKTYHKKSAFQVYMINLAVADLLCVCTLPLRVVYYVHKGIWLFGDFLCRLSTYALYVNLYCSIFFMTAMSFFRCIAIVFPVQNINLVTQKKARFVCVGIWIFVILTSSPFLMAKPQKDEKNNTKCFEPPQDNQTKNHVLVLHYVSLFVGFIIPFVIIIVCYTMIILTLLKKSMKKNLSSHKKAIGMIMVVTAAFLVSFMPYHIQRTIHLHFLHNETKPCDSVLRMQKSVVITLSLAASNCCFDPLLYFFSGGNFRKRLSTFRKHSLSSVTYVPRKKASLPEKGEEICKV
Description: Cellular in vitro test to determine the CysLT1 activity (aequorin luminescence, LTD4 stimulation). In kind it is cell-based. Particulars: CHO K1 cells with aequorin and human CysLT1 receptor; agonist LTD4 3×10^−9 M.
Excerpt: 2. Cellular In Vitro Test to Determine the CysLT1 Activity
A recombinant cell line is used to identify antagonists of the human cysteinyl-leukotriene 1 receptor (CysLT1R) and to quantify the activity of the substances described herein. The cell is originally derived from a hamster ovary epithelial cell (Chinese Hamster Ovary, CHO K1, ATCC: American Type Culture Collection, Manassas, Va. 20108, USA). The test cell line constitutively expresses the calcium-sensitive photoprotein aequorin which, after reconstitution with the cofactor coelenterazine, emits light when the cytoplasmic calcium concentration is increased (Rizzuto R, Simpson A W, Brini M, Pozzan T.; Nature 358 (1992) 325-327). The cell is additionally stably transfected with the human CysLT1 receptor (Lynch et al., Nature 399 (1999) 789-793). The resulting CysLT1R test cell responds to stimulation of the recombinant CysLT1 receptor (agonist: leukotriene D4 (LTD4)) with an intracellular release of calcium ions, which can be quantified through the resulting aequorin luminescence with a suitable luminometer (Milligan G, Marshall F, Rees S. Trends in Pharmacological Sciences 17 (1996) 235-237). Preincubation with antagonists of the CysLT1 receptor reduces the calcium release induced by the agonist LTD4 and thus the measured amount of light.
as §1, with “CaCl2,” for “CaCl2;”, “(3×10^−9M)” for “(3×10^−8 M)”

Data set [1] concerns isolated guinea pig hearts. Description: Langendorff guinea pig heart: perfusion pressure and left ventricular pressure after LTC4. How it is done: 3. […] to Detect the Cardiovascular Effect: Langendorff Guinea Pig Heart
The heart is removed after opening the chest cavity of anaesthetized guinea pigs and is introduced into a conventional Langendorff apparatus. The coronary arteries are subjected to a constant volume (10 ml/min) perfusion, and the perfusion pressure arising thereby is recorded via an appropriate pressure transducer. A decrease in the perfusion pressure in this arrangement corresponds to a relaxation of the coronary arteries. At the same time, the pressure developed by the heart during each contraction (the left ventricular pressure) is measured by a balloon introduced into the left ventricle, and a further pressure transducer. The rate at which the isolated heart beats is found by calculation from the number of contractions per unit time.
To detect the effect of CysLT2 receptor antagonists, the perfusion with the agonist LTC4 (10^−8 M) is started 15 minutes before addition of increasing concentrations of the test substance (10^−8 to 10^−6 M).

Where [2] appears, read: LTC4 (10^−8M) + test sub. (10^−6M).
Setting [3] is: LTC4 (10^−8M) + test sub. (10^−7M).
Where [4] appears, read: LTC4 (10^−8M) + test sub. (10^−8M).

`O=C(O)c1ccc(OCCCc2ccc(OCCCCOc3ccccc3)cc2)c(C(=O)NC2CCCC(C(=O)O)C2)c1` (racemic) [Example 11, 3-{[(3-Carboxycyclohexyl)amino]carbonyl}-4-{3-[4-(4-phenoxybutoxy)phenyl]-propoxy}benzoic acid (racemate B)] showed a melting point of 182 to 183 °C. The IC50 at human CysLT2 receptor amounted to 35 nM. The compound further yielded an IC50 at human CysLT1 receptor greater than 10000 nM. In addition, in data set [1] (setting [2]), the “Left ventricular pressure relative to control without LTC4” value stood at 79% and the “Perfusion pressure relative to control without LTC4” value is listed as 108%. Besides, in data set [1] (setting [3]), the “Left ventricular pressure relative to control without LTC4” value came out at 60% and the “Perfusion pressure relative to control without LTC4” value turned out to be 112%. For the same compound, in data set [1] (setting [4]), the “Left ventricular pressure relative to control without LTC4” value worked out at 44% and the “Perfusion pressure relative to control without LTC4” value was 125%.

As for `O=C(O)c1ccc(OCCCc2ccc(OCCCCOc3ccccc3)cc2)c(C(=O)NC2CCCC(C(=O)O)C2)c1` (racemic) [Example 12, 3-{[(3-Carboxycyclohexyl)amino]carbonyl}-4-{3-[4-(4-phenoxybutoxy)phenyl]-propoxy}benzoic acid (racemate A)], the melting point was greater than 210 °C.

For `O=C(O)c1ccc(OCCCc2ccc(OCc3ccc(-c4ccccc4)cc3)cc2)c(C(=O)N2CCC(C(=O)O)CC2)c1` [Example 13, 1-(2-{3-[4-(1,1′-Biphenyl-4-ylmethoxy)phenyl]propoxy}-5-carboxybenzoyl)-4-piperidinecarboxylic acid], the melting point was 193 to 194 °C.

Consider `O=C(O)c1ccc(OCCCc2ccc(OCCCCOc3ccccc3)cc2)c(C(=O)N2CCC(C(=O)O)CC2)c1` [Example 15, 1-(5-Carboxy-2-{3-[4-(4-phenoxybutoxy)phenyl]propoxy}benzoyl)-4-piperidine-carboxylic acid], for which the melting point was 142 to 143 °C.

Regarding `O=C(O)c1ccc(OCCCc2ccc(OCCCCOc3ccccc3)cc2)c(C(=O)NC2CCC(C(=O)O)CC2)c1` (stereo not shown) [Example 16, 3-{[(4-Carboxycyclohexyl)amino]carbonyl}-4-{3-[4-(4-phenoxybutoxy)phenyl]-propoxy}benzoic acid], the melting point fell in the range of 163 to 165 °C.

`O=C(O)CC1CCN(C(=O)c2cc(C(=O)O)ccc2OCCCc2ccc(OCCCCOc3ccccc3)cc2)CC1` [Example 18, 3-{[4-(Carboxymethyl)-1-piperidinyl]carbonyl}-4-{3-[4-(4-phenoxybutoxy)phenyl]-propoxy}benzoic acid] returned a melting point of 192 °C.

With `O=C(O)c1ccc(OCCCc2ccc(OCCCC3CCCCC3)cc2)c(C(=O)NC2CCCC(C(=O)O)C2)c1` (stereo not shown) [Example 23, 3-{[(3-Carboxycyclohexyl)amino]carbonyl}-4-{3-[4-(3-cyclohexylpropoxy)phenyl]-propoxy}benzoic acid], the melting point came to 160 °C. Also, the IC50 at human CysLT2 receptor came to 5 nM. For the same compound, the IC50 on human CysLT1 receptor is 2000 nM. In data set [1] (setting [2]), the “Left ventricular pressure relative to control without LTC4” value was found to be 97% and the “Perfusion pressure relative to control without LTC4” value was 111%. In addition, in data set [1] (setting [3]), the “Left ventricular pressure relative to control without LTC4” value came to 84% and the “Perfusion pressure relative to control without LTC4” value came to 127%. Further, in data set [1] (setting [4]), the “Left ventricular pressure relative to control without LTC4” value came to 72% and the “Perfusion pressure relative to control without LTC4” value worked out at 133%.

`O=C(O)c1ccc(OCCCc2ccc(OCCCC3CCCCC3)cc2)c(C(=O)N2CCC(C(=O)O)CC2)c1` [Example 31, 1-(5-Carboxy-2-{3-[4-(3-cyclohexylpropoxy)phenyl]propoxy}benzoyl)piperidine-4-carboxylic acid] displayed a melting point of 183.4 to 184.5 °C. The compound further showed an IC50 at human CysLT2 receptor of 14 nM. In addition, the IC50 at human CysLT1 receptor was determined as 2500 nM. In addition, in data set [1] (setting [2]), the “Left ventricular pressure relative to control without LTC4” value turned out to be 87% and the “Perfusion pressure relative to control without LTC4” value was found to be 112%. In data set [1] (setting [3]), the “Left ventricular pressure relative to control without LTC4” value is reported as 81% and the “Perfusion pressure relative to control without LTC4” value came to 123%. Besides, in data set [1] (setting [4]), the “Left ventricular pressure relative to control without LTC4” value is 67% and the “Perfusion pressure relative to control without LTC4” value amounted to 128%.

With `CC(C)Oc1ccc(COc2ccc(CCCOc3ccc(C(=O)O)cc3C(=O)NC3CCCC(C(=O)O)C3)cc2)cc1` (stereo not shown) [Example 33, 3-{[(3-Carboxycyclohexyl)amino]carbonyl}-4-(3-{4-[(4-isopropoxybenzyl)oxy]-phenyl}propoxy)benzoic acid], the figures for the IC50 at human CysLT2 receptor and at human CysLT1 receptor were 15 nM and greater than 10000 nM, respectively. The “Left ventricular pressure relative to control without LTC4” value in data set [1] (setting [2]) is on record as 84%; in data set [1] (setting [3]), 57%; in data set [1] (setting [4]), 44%. Also, the figures for the “Perfusion pressure relative to control without LTC4” value in data set [1] (setting [2]), in data set [1] (setting [3]) and in data set [1] (setting [4]) were 108%, 121% and 122%, respectively.
